Experimental data published in ChEMBL document CHEMBL6120961, “Design, Synthesis, and Biological Evaluation of Covalently Mucoadhesive Derivatives as Nonsystemic Intestine-Targeted TGR5 Agonists” (J Med Chem, 2024).
Blank lines part the entries; values can stand above or below the molecule they belong to. Active and inactive are the calls of the source. The calls are words filed in the database; no cut-off is given here.

How the values were obtained:
[1] = Toxicity in overnight fasted male C57BL/6J mouse assessed as increase in gallbladder volume at 50 mg/kg, po measured after 6 hrs; assay type: organism-based; settings: in vivo
[2] = Toxicity in overnight fasted male C57BL/6J mouse assessed as increase in bile weight at 50 mg/kg, po measured after 6 hrs; assay type: organism-based; settings: in vivo
[3] = Apparent permeability across apical to basolateral side in human Caco-2 cells assessed as drug recovery at 2 uM incubated for 2 hrs by LC-MS/MS analysis; assay type: ADME, cell-based; settings: read-out: Drug recovery
[4] = biological target: T1, G-protein coupled bile acid receptor 1 (Homo sapiens, UniProt Q8TDU6); experiment: Agonist activity at human TGR5 expressed in HEK293T cells assessed as cAMP production incubated for 30 mins by HTRF assay; assay type: functional, cell-based
T1 sequence (Q8TDU6 whole entry): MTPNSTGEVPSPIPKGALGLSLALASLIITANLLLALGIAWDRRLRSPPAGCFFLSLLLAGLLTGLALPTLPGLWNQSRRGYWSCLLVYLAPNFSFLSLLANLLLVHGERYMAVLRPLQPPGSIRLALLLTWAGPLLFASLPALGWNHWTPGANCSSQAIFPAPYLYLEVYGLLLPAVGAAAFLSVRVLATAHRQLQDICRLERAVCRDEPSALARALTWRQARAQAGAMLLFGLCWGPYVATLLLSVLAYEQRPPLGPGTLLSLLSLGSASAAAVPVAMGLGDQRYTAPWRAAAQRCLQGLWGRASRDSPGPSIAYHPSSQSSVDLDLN

[5] = biological target: T2, G-protein coupled bile acid receptor 1 (Mus musculus, UniProt Q80SS6); experiment: Agonist activity at mouse TGR5 expressed in HEK293T cells assessed as cAMP production incubated for 30 mins by HTRF assay; assay type: cell-based
T2 sequence (Q80SS6 whole entry): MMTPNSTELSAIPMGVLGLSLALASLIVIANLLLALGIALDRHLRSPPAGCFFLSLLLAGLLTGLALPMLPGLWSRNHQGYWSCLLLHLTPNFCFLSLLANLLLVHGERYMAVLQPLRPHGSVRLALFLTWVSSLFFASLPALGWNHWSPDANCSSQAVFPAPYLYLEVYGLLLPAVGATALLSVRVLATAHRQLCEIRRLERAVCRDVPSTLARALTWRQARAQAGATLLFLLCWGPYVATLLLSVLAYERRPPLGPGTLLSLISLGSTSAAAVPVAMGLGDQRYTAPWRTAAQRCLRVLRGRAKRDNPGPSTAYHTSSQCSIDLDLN

Mus musculus [6] = experiment: (§1) Hypoglycemic activity in overnight fasted C57BL/6 mouse assessed as reduction in blood glucose level at 50 mg/kg, po preadministered with compound for 60 mins followed by first dose of glucose administration for 120 mins and measured after 120 mins of second glucose administration by oral glucose tolerance test; assay type: functional, organism-based; settings: time 5.0 hrs
Mus musculus [7] = experiment: as §1, with “AUC (0 to 120 min)” for “level”, “test relative to control” for “test”; assay type: functional; design: scale not given: the % may be the effect or the level left; settings: time 5 hrs
Mus musculus [8] = experiment: as §1, with “AUC (180 to 300 min)” for “level”, “test relative to control” for “test”; assay type: functional; design: scale not given: the % may be the effect or the level left; settings: time 5 hrs
Mus musculus [9] = experiment: Hypoglycemic activity in TGR5-/- mouse model assessed as reduction in blood glucose level at 50 mg/kg, po preadministered with compound for 60 mins followed by glucose administration and measured after 120 mins by oral glucose tolerance test; assay type: functional, organism-based; settings: time 180.0 min
Mus musculus [10] = experiment: Insulin sensitizing activity in over-night fasted male C57BL/6J mouse model assessed as reduction in plasma glucose AUC level at 50 mg/kg, po preadministered with compound for 60 mins followed by insulin administration and measured after 120 mins by insulin tolerance test; assay type: functional, organism-based; settings: time 180.0 min
[11] = biological target: T3, G-protein coupled bile acid receptor 1 (Homo sapiens) (UniProt Q8TDU6); experiment: Agonist activity at TGR5 in human NCI-H716 cells assessed as increase in GLP-1 secretion at 10 uM preincubated with vildagliptin followed by compound addition and measured after 2 hrs by GLP-1(7 to 36) ELISA; assay type: functional, cell-based; settings: filed as agonist
T3 sequence (whole entry): T1 sequence (Q8TDU6 whole entry)

Mus musculus [12] = experiment: In vivo agonist activity at TGR5 in wildtype C57BL/6J mouse assessed as increase in GLP-1 secretion in blood at 50 mg/kg, po preadministered with vildagliptin for 1 hrs followed by compound administration and measured after 4 hrs; assay type: functional, organism-based
Mus musculus [13] = experiment: Induction of GLP-1 secretion in TGR5-/- mouse model at 50 mg/kg, po preadministered with vildagliptin for 1 hrs followed by compound administration and measured after 4 hrs; assay type: functional, organism-based
Mus musculus [14] = experiment: Hypoglycemic activity in diet-induced obese mouse model assessed as reduction in blood glucose level at 50 mg/kg, po administered every day and measured after 4 to 8 days; assay type: functional, organism-based; settings: time 4-8 day
Mus musculus [15] = experiment: Hypoglycemic activity in diet-induced obese mouse model assessed as reduction in blood glucose AUC (0 to 12 days) level at 50 mg/kg, po administered every day and measured after 12 days relative to control; assay type: functional; design: scale not given: the % may be the effect or the level left; settings: time 12 day
Mus musculus [16] = experiment: Hypoglycemic activity in non-fasted diabetic db/db mouse model assessed as decrease in plasma HbA1c level at 50 mg/kg, IG administered once daily for 28 days by glycosylated hemoglobin (GHb) assay; assay type: functional, organism-based; settings: time 28.0 day
[17] = Toxicity in overnight fasted male C57BL/6J mouse assessed as increase in gallbladder volume at 50 mg/kg, iv measured after 2 hrs; assay type: organism-based; settings: in vivo
[18] = Toxicity in overnight fasted male C57BL/6J mouse assessed as increase in bile weight at 50 mg/kg, iv measured after 2 hrs; assay type: organism-based; settings: in vivo
[19] = Acute toxicity in overnight fasted male C57BL/6J mouse model assessed as behavioral abnormalities at 50 to 200 mg/kg, IG administered for 3 days; assay type: organism-based; settings: in vivo, po, 72 h, dose 50-200 mg/kg, time 3 day
[20] = Acute toxicity in overnight fasted male C57BL/6J mouse model assessed as effect on LDH level in blood at 50 mg/kg, IG administered for 3 days; assay type: organism-based; settings: in vivo, po, 72 h, time 3 day
[21] = Acute toxicity in overnight fasted male C57BL/6J mouse model assessed as effect on ALT level in blood at 50 mg/kg, IG administered for 3 days; assay type: organism-based; settings: in vivo, po, 72 h, time 3 day
[22] = Acute toxicity in overnight fasted male C57BL/6J mouse model assessed as effect on AST level in blood at 50 mg/kg, IG administered for 3 days; assay type: organism-based; settings: in vivo, po, 72 h, time 3 day
[23] = Acute toxicity in overnight fasted male C57BL/6J mouse model assessed as effect on ALP level in blood at 50 mg/kg, IG administered for 3 days; assay type: organism-based; settings: in vivo, po, 72 h, time 3 day
[24] = Acute toxicity in overnight fasted male C57BL/6J mouse model assessed as effect on total protein level in blood at 50 mg/kg, IG administered for 3 days; assay type: organism-based; settings: in vivo, po, 72 h, time 3 day
[25] = Acute toxicity in overnight fasted male C57BL/6J mouse model assessed as effect on uric acid level in blood at 50 mg/kg, IG administered for 3 days; assay type: organism-based; settings: in vivo, po, 72 h, time 3 day
[26] = Acute toxicity in overnight fasted male C57BL/6J mouse model assessed as effect on urea level in blood at 50 mg/kg, IG administered for 3 days; assay type: organism-based; settings: in vivo, po, 72 h, time 3 day
[27] = Acute toxicity in overnight fasted male C57BL/6J mouse model assessed as effect on […] level in blood at 50 mg/kg, IG administered for 3 days; assay type: organism-based; settings: in vivo, po, 72 h, time 3 day
[28] = Acute toxicity in overnight fasted male C57BL/6J mouse model assessed as increase in ALT level in blood at 200 mg/kg, IG administered for 3 days; assay type: organism-based; settings: in vivo, po, 72 h, time 3 day
[29] = Acute toxicity in overnight fasted male C57BL/6J mouse model assessed as increase in AST level in blood at 200 mg/kg, IG administered for 3 days; assay type: organism-based; settings: in vivo, po, 72 h, time 3 day
[30] = Acute toxicity in overnight fasted male C57BL/6J mouse model assessed as increase in serum uric acid level at 200 mg/kg, IG administered for 3 days; assay type: organism-based; settings: in vivo, po, 72 h, time 3 day
[31] = Acute toxicity in overnight fasted male C57BL/6J mouse model assessed as histopathological change in liver at 50 to 200 mg/kg, IG administered for 3 days by H and E staining based analysis; assay type: organism-based; settings: in vivo, po, 72 h, dose 50-200 mg/kg, time 3 day
[32] = Apparent permeability across apical to basolateral side in human Caco-2 cells at 2 uM incubated for 2 hrs by LC-MS/MS analysis; assay type: ADME, cell-based
[33] = Apparent permeability across basolateral to apical side in human Caco-2 cells at 2 uM incubated for 2 hrs by LC-MS/MS analysis; assay type: ADME, cell-based
[34] = Apparent permeability across basolateral to apical side in human Caco-2 cells assessed as drug recovery at 2 uM incubated for 2 hrs by LC-MS/MS analysis; assay type: ADME, cell-based; settings: read-out: Drug recovery
Homo sapiens = species: Homo sapiens; experiment: Binding affinity to mucin (unknown origin) assessed as disappearance of peak at 9.793 retention time incubated for 2 hrs by HPLC analysis
Rattus norvegicus = species: Rattus norvegicus; experiment: Muco-adhesive activity in rat intestine assessed as disappearance of peak at 9.793 retention time incubated for 2 hrs by HPLC analysis; assay type: functional
[35] = Efflux ratio of apparent permeability across basolateral to apical over apical to basolateral side in human Caco-2 cells at 10 uM incubated for 2 hrs by LC-MS/MS analysis
[36] = Apparent permeability across apical to basolateral side in human Caco-2 cells at 10 uM incubated for 2 hrs by LC-MS/MS analysis
[37] = Apparent permeability across basolateral to apical side in human Caco-2 cells at 10 uM incubated for 2 hrs by LC-MS/MS analysis
[38] = Apparent permeability across apical to basolateral side in human Caco-2 cells assessed as drug recovery at 10 uM incubated for 2 hrs by LC-MS/MS analysis
[39] = Apparent permeability across basolateral to apical side in human Caco-2 cells assessed as drug recovery at 10 uM incubated for 2 hrs by LC-MS/MS analysis

SMILES: O=C(c1cnccc1Oc1cc(Cl)ccc1Cl)N1CCN(C2CC2)c2ccccc21
Activity [1]: Toxic
Activity [2]: Toxic

SMILES: CC(C)(C)NCC(O)COc1cccc2c1CC(O)C(O)C2 (configuration not stated) [NADOLOL]
recovery at 2 h, 2 µM [3]: 102%

SMILES: O=C(CCCCCN1C(=O)C=CC1=O)NCCCCCCNC(=O)CCc1cc(Cl)c(Oc2ccncc2C(=O)N2CCN(C3CC3)c3ccccc32)cc1Cl
EC50 [4]: 0.166 µM
EC50 [5]: 0.138 µM
Activity (Mus musculus [6]): Active
Activity (Mus musculus [7]): 19.5%
Activity (Mus musculus [8]): 15.9%
Activity (Mus musculus [9]): inactive
Activity (Mus musculus [10]): Active
Activity [11]: Active
Activity (Mus musculus [12]): Active
Activity (Mus musculus [13]): inactive
Activity (Mus musculus [14]): Active
Activity (Mus musculus [15]): 10.4%
Activity (Mus musculus [16]): Active
Activity [1]: Non-toxic
Activity [2]: Non-toxic
Activity [17]: Toxic
Activity [18]: Toxic
Activity [19]: Non-toxic
Activity [20]: Non-toxic
Activity [21]: Non-toxic
Activity [22]: Non-toxic
Activity [23]: Non-toxic
Activity [24]: Non-toxic
Activity [25]: Non-toxic
Activity [26]: Non-toxic
Activity [27]: Non-toxic
Activity [28]: Toxic
Activity [29]: Toxic
Activity [30]: Toxic
Activity [31]: Non-toxic
Papp A→B at 2 h, 2 µM [32]: < 0.48 ×10⁻⁶ cm/s
Papp B→A at 2 h, 2 µM [33]: < 0.432 ×10⁻⁶ cm/s
recovery at 2 h, 2 µM [3]: < 1.1%
recovery at 2 h, 2 µM [34]: < 22.8%
Activity (Homo sapiens): Active
Activity (Rattus norvegicus): Active

SMILES: COCCc1ccc(OCC(O)CNC(C)C)cc1 (configuration not stated) [METOPROLOL]
Papp A→B at 2 h, 2 µM [32]: 18.8 ×10⁻⁶ cm/s
recovery at 2 h, 2 µM [3]: 104%

SMILES: C[C@H]1O[C@@H](O[C@H]2[C@@H](O)C[C@H](O[C@H]3[C@@H](O)C[C@H](O[C@H]4CC[C@@]5(C)[C@H](CC[C@@H]6[C@@H]5C[C@@H](O)[C@]5(C)[C@@H](C7=CC(=O)OC7)CC[C@]65O)C4)O[C@@H]3C)O[C@@H]2C)C[C@H](O)[C@@H]1O [DIGOXIN]
efflux ratio at 2 h, 10 µM [35]: 535
Papp A→B at 2 h, 10 µM [36]: 0.024 ×10⁻⁶ cm/s
Papp B→A at 2 h, 10 µM [37]: 13.1 ×10⁻⁶ cm/s
recovery at 2 h, 10 µM [38]: 102%
recovery at 2 h, 10 µM [39]: 103%

The next lines start with results.

EC50 [4]: 0.355 µM
EC50 [5]: 0.4 µM
SMILES: O=C(CCCCCN1C(=O)C=CC1=O)NCCCCCCCCNC(=O)CCc1cc(Cl)c(Oc2ccncc2C(=O)N2CCN(C3CC3)c3ccccc32)cc1Cl
Activity (Mus musculus [6]): inactive

EC50 [4]: 0.2 µM
EC50 [5]: 0.835 µM
SMILES: O=C(CCCCCN1C(=O)C=CC1=O)NCCCCNC(=O)CCc1cc(Cl)c(Oc2ccncc2C(=O)N2CCN(C3CC3)c3ccccc32)cc1Cl
Activity (Mus musculus [6]): inactive
